Laboratory results from patent publication US20220218734A1, “COMBINATIONS OF THERAPEUTIC AGENTS FOR TREATING UVEAL MELANOMA” (Universiteit Gent, priority 2019, published 2022).

Experiments:
[1] = tested on: UM cell lines 92.1 and OMM1; experiment: ASO-compound combination validation, Excess over Bliss (viability and confluence); type: cell-based, human; conditions: compound combined with LNA ASO 3 (50 nM), 72 h, viability and confluence read outs; >0 synergism
Experimental: For the validation experiments, uveal melanoma cell lines 92.1 and OMM1 were seeded in 96 well plates (Corning costar 3596) at a density of 5000 cells/well and were allowed to settle overnight. Subsequently, the cells were transfected using lipofectamine 2000 (Life Technologies) with 50 or 100 nM LNA ASO 3 or LNA NTC and treated with various concentrations of the compounds and with a final DMSO concentration of maximum 0.1%. The compounds were added to the wells using the HP D300e Digital dispenser (Tecan). Control cells were transfected with LNA NTC ASO and treated with DMSO.
Cell viability was also examined using a CellTiter-Glo assay (Promega). Before initiating the assay, the culture plates and reconstituted assay buffer were placed at room temperature for 30 minutes. Next, the culture medium was replaced by 200 μl fresh culture medium—- assay buffer (1:1) mix. To induce complete cell lysis, the plates were shaken for 10 min. 100 μl from each well was subsequently transferred to an opaque 96-well plate (Nunc), which was measured with a GloMax 96 Microplate Luminometer (Promega). The CellTiter-Glo assay was performed on various predefined timepoints.
For real-time analysis, IncuCyte Zoom system and IncuCyte S3 system (Essen BioScience) were used. Cells were seeded and treated as described above. After treatment, the culture plate was incubated in an IncuCyte Zoom system or IncuCyte S3 system at 37° C. in a humidified 5% CO2 incubator. Phase contrast whole well images were captured every 3 h. The IncuCyte ZOOM and IncuCyte S3 software (Essen BioScience) were utilized in real-time to measure % confluence, as a proxy for proliferation.
Bliss independence (BI) scores were calculated to determine ASO-compound interactions. The predictive performance (BI score) is then compared to the observed drug interaction data measured by the Excess over Bliss. Excess over Bliss scores>0 indicate drug synergism, Excess over Bliss scores=0 indicate additive effects and Excess over Bliss scores<0 indicate drug antagonism.

[2] = tested on: UM cell line OMM1; experiment: Seahorse XF Cell Mito Stress Test; type: cell-based, human; conditions: GDC-0349 0.625 μM, ASO 3 50 nM, combination compared to single ASO 3 treatment
Experimental: Cells were seeded in T75 culture flasks (Cellstar) at a density of 1 170 000 cells/T75 flask 24 h prior to transfection. The cells were transfected with 50 nM ASO 3 or NTC using lipofectamine 2000, followed by GDC-0349 (0.625 μM) treatment. Four hours later, 25 000 cells were transferred to Seahorse XFp Cell Culture Miniplates (Agilent) and were allowed to settle overnight. Subsequently, oxygen consumption rates were measured in triplicates for each condition using the Seahorse XFp device (Agilent) according to the standard mito stress test procedures in seahorse assay medium supplemented with 14.3 mM glucose, 1 mM pyruvate and 2 mM glutamine (Sigma), and cells were sequentially challenged with 1 μM oligomycin, 1 μM carbonyl cyanide 4-(trifluoromethoxy)-phenylhydrazone (FCCP) and 0.5 μM of a rotenone antimycin A mix (Agilent). Following the assay, protein concentrations were calculated based upon absorbance reading at 280 nm (Biodrop, Isogen Lifescience) for normalization of the results. Spare respiratory capacity was calculated as the difference between maximal and the basal oxygen consumption rate. Relative oxygen consumption rates are relative compared to NTC values.

[3] = tested on: rpS6 (S235/S236); experiment: Western blot for rpS6 and phospho-rpS6; type: cell-based, human; conditions: 92.1, 24 h, GDC-0349 0.625 μM or 1.25 μM; for phosphorylated rpS6 (S235/S236) levels: ASO 3 50 nM
Experimental: (§1) Cells were lysed in RIPA lysis buffer (5 mg/ml sodium deoxycholate, 150 mM NaCl, 50 mM Tris-HCl pH 7.5, 0.1% SDS solution, 1% NP-40) supplemented with protease and/or phosphatase inhibitors Protein concentrations were determined with the BCA protein assay (Bio-Rad). In total, 35 μg of protein lysate was loaded onto an SDS-PAGE gel (10% Pre-cast, Bio-Rad), run at 100 V for 1 h and subsequently blotted onto a nitrocellulose membrane. Antibodies against phospho-S6 Ribosomal Protein (Ser235/236) (#2211, 1:1000 dilution), phospho-4E-BP(Thr37/46) (#2855, 1:1000 dilution), S6 Ribosomal Protein (#2317, 1:1000 dilution) and 4E-BP1 (#9644, 1:1000 dilution) were purchased from Cell Signaling Technology. HRP-labeled anti-rabbit (7074 S, Cell Signaling, 1:10 000 dilution) and anti-mouse (7076P2, Cell Signaling, 1:10 000 dilution) antibodies were used as secondary antibodies. Anti-Vinculin antibody (V9131, Sigma-Aldrich, 1:10 000 dilution) was used as loading control. The antibodies were diluted in BSA/TBST (5% BSA in TBS with 0.1% Tween20) and antibody binding with membrane was evaluated using the SuperSignal West Dura Extended Duration Substrate (ThermoFisher Scientific) or SuperSignal West Femto Maximum Sensitivity Substrate (ThermoFisher Scientific). Imaging was performed by means of the Amersham Imager 680 (GE Healthcare). Image J was used for the quantification of the blots.

[4] = tested on: 4E-BP1 (T37/T46); experiment: Western blot for 4E-BP1 and phospho-4E-BP1; type: cell-based, human; conditions: 92.1, 24 h, GDC-0349 0.625 μM or 1.25 μM; for phosphorylated 4E-BP1 (T37/T46) levels: ASO 3 50 nM
Experimental: as §1

[5] = tested on: UM cell lines 92.1 and OMM1; experiment: SUnSET puromycin incorporation (translation rate); type: cell-based, human; conditions: 92.1 and OMM1, 24 h; ASO 3 50 nM, GDC-0349 0.625 μM
Experimental: Cells were seeded in T75 culture flasks (Cellstar) at a density of 1 170 000 cells/T75 flask 24 h prior to transfection. The cells were transfected with 50 nM LNA ASO 3 or NTC using lipofectamine 2000, followed by GDC-0349 (0.625 μM) or DMSO treatment. 24 h later, cells were washed in 1× phosphate buffer saline (PBS) and subsequently incubated with puromycin containing media (InvivoGen, 10 μg/ml) for 10 min. Puromycin incorporation is a proxy for the mRNA translation rate in vitro and was measured by Western blotting using an anti-puromycin antibody (MABE343, clone 12D10, Merck Millipore, 1:10 000). The antibody was diluted in Milk/TB ST (5% non-fat dry milk in TBS with 0.1% Tween20). Imaging was performed by means of the Amersham Imager 680 (GE Healthcare). An equal protein loading was verified using a ponceau S staining (Sigma Aldrich). Image J was used for the quantification of the blots.

[6] = tested on: UM cell lines 92.1 and OMM1; experiment: Differential gene expression analysis by RNA sequencing; type: cell-based, human; conditions: 92.1 and OMM1, 24 h; ASO 3 50 nM, GDC-0349 0.625 μM
Experimental: RNA sequencing was performed on quadruplicates of NTC (50 nM), ASO 3 (50 nM), GDC-0349 (0.625 μM) and ASO 3 (50 nM)+GDC-0349 (0.625 μM) treated 92.1 and OMM1 cells. Libraries for RNA sequencing were prepared using the Quant Seq 3′ end library prep […] and quantified on a Qubit 2.0 Fluorometer prior to single-end sequencing with 75 bp read length on a NextSeq 500 sequencer (Illumina). Reads were mapped to the human genome (hg38) and gene expression was quantified using HTSeq. Differentialy expressed genes were identified using DESeq2.

[7] = tested on: SAMMSON; experiment: SAMMSON expression / knockdown by RT-qPCR in UM cells; type: cell-based, human; conditions: in most cell lines
Experimental: Total RNA was extracted using the miRNeasy kit (Qiagen) according to the manufacturer's instructions, including on-column DNase treatment. The Nanodrop (ThermoFisher Scientific) was used to determine RNA concentrations and cDNA synthesis was performed using the iScript Advanced cDNA synthesis kit (Bio-Rad) using a mix containing 200 ng of RNA, 4 μl of 5× iScript advanced reaction buffer and 1 μl of iScript advanced reverse transcriptase. The qPCR mix contains 2 μl of cDNA (5 ng), 2.5 μl SsoAdvanced Universal SYBR Green Supermix (Bio-Rad), 0.25 μl forward (5 μM, IDT) and reverse primer (5 μM, IDT) and was analyzed on a LC-480 device (Roche). Expression levels were normalized using expression data of at least 2 stable reference genes out of 4 tested reference genes (SDHA^9,10, HPRT1^11,12, UBC^13 and TBP^14,15). Analysis was performed using the qbase+software (https://www.qbaseplus.com).

[8] = tested on: UM patient derived xenografts (PDX) model (MP46); experiment: Tumor growth in UM patient derived xenograft model; type: in vivo, mouse
Experimental: Since SAMMSON expression is not conserved across species, an UM patient derived xenografts (PDX) model (MP46) was used to investigate the effect on tumor growth in vivo upon SAMMSON knock down. LNA ASO 3 and LNA non targeting control (NTC) were subcutaneous injected at a dose of 10 mg/kg three times in the first week and twice per week in the second and third week.

Compound: CC(=O)Nc1ccc(C(=O)Nc2ccccc2N)cc1 [CI-994, N-(2-aminophenyl)-4-acetamidobenzamide]
- Excess over Bliss score (synergism) [1]: synergistic

Compound: Cc1cc(C)c(-c2csc(NC(=O)c3ccccc3)n2)c(C)c1 [INH-6, N-[4-(2,4,6-trimethylphenyl)-2-thiazolyl]-benzamide]
- Excess over Bliss score (synergism) [1]: synergistic

Compound: CCNC(=O)Nc1ccc(-c2nc3c(c(N4CCOC[C@@H]4C)n2)CCN(C2COC2)C3)cc1 [GDC-0349, 3-ethyl-1-(4-{4-[(3S)-3-methylmorpholin-4-yl]-7-(oxetan-3-yl)-5H,6H,7H,8H-pyrido[3,4-d]pyrimidin-2-yl}phenyl)urea]
- Excess over Bliss score (synergism) [1]: synergistic
- mitochondrial function / oxidative phosphorylation (oxygen consumption rate) [2]: does not alter the mitochondrial function
- phosphorylated rpS6 (S235/S236) levels [3]: dose dependent reduction
- total rpS6 levels [3]: remain unaffected
- phosphorylated 4E-BP1 (T37/T46) levels [4]: dose dependent reduction
- total 4E-BP1 levels [4]: remain unaffected
- translation rate (incorporated puromycin signal) [5]: translation inhibition
- expression pattern of differentially expressed genes compared to NTC ASO [6]: not affecting the expression of many of these genes

Compound: Oc1c(I)cc(Cl)c2cccnc12 [clioquinol, 5-chloro-7-iodoquinolin-8-ol]
- Excess over Bliss score (synergism) [1]: synergistic

Compound: Nc1ccccc1NC(=O)c1ccc(CNC(=O)OCc2cccnc2)cc1 [entinostat, (pyridin-3-yl)methyl N-({4-[(2-aminophenyl)carbamoyl]phenyl}methyl)carbamate]
- Excess over Bliss score (synergism) [1]: synergistic

Compound: COc1cc(NS(C)(=O)=O)ccc1Nc1c2ccccc2nc2ccccc12 [amsacrine, N-{4-[(acridin-9-yl)amino]-3-methoxyphenyl}methanesulfonamide]
- Excess over Bliss score (synergism) [1]: synergistic

Compound: LNA ASO 3: LNA gapmer antisense oligonucleotide targeting SAMMSON, GTGTGAACTTGGCT (SEQ ID NO: 1), purchased from Qiagen (LNA gapmer from Qiagen, pattern not given here)
- knockdown and phenotypic effect compared to LNA ASO 11 [7]: more efficient knockdown and phenotypic effect
- weight loss ([8]; subcutaneous 10 mg/kg LNA ASO 3, PDX mice): no weight loss
- tumor growth ([8]; subcutaneous 10 mg/kg, three times in first week, twice per week in second and third week, compared to NTC treated PDX mice): significant tumor growth inhibition
- phosphorylated rpS6 (S235/S236) levels [3]: doesn't affect the phosphorylation status of rpS6
- phosphorylated 4E-BP1 (T37/T46) levels [4]: less phosphorylated 4E-BP1
- translation rate (incorporated puromycin signal) [5]: translation inhibition
- expression pattern of differentially expressed genes compared to NTC ASO [6]: reverses the expression pattern

Compound: CC#C[C@]1(O)CC[C@H]2[C@@H]3CCC4=CC(=O)CCC4=C3[C@@H](c3ccc(N(C)C)cc3)C[C@@]21C [mifepristone, (1S,3aS,3bS,10R,11 aS)-10-[4-(dimethylamino)phenyl]-1-hydroxy-11a-methyl-1-(prop-1-yn-1-yl)-1H,2H,3H,3aH,3bH,4H,5H,7H,8H,9H,10H,11H,11aH-cyclopenta[a]phenanthren-7-one]
- Excess over Bliss score (synergism) [1]: synergistic
